# Test results reported in patent US20200390766A1, “PHARMACEUTICAL COMPOSITION” (Kowa Company, Ltd., priority 2019, published 2020).
# Experiments:
# Assay type in all cases: in vivo, male ICR mice
# [1] = test system: pulmonary fibrosis model mice exposed to bleomycin in the trachea; assay: Preventive effect on pulmonary fibrosis (Example 1): lung wet weight; conditions: FIG. 1; for lung weight as compared to the normal group: lungs extracted 21 days after exposure
# Procedure: (§1) Compound A was dissolved in a 0.5% aqueous solution of methylcellulose (methylcellulose: Shin-Etsu Chemical Co., Ltd., distilled water: Otsuka Pharmaceutical Factory, Inc.) to prepare a sample solution. Further, losartan (Tokyo Chemical Industry Co., Ltd.) was dissolved in a 0.5% aqueous solution of methylcellulose to prepare a sample solution. Furthermore, pirfenidone (Ark Pharma Inc.) was dissolved in a 0.5% aqueous solution of methylcellulose to prepare a sample solution.
# (§2) 6-week-old male ICR mice (Japan SLC, Inc.) were exposed to bleomycin (Nippon Kayaku Co., Ltd.) (1.5 mg/kg) dissolved in physiological saline in the trachea to prepare pulmonary fibrosis model mice.
# Investigation was conducted in mice not exposed to bleomycin (exposed to physiological saline in the trachea) in the normal group (6 mice), and pulmonary fibrosis model mice exposed to bleomycin in the trachea divided into 4 groups (control, compound A 50 mg/kg/day, losartan 50 mg/kg/day, and pirfenidone 400 mg/kg/day; 10 mice in each group). From the day after exposure to bleomycin, a 0.5% aqueous solution of methylcellulose was orally administered (administered twice a day) to the normal group and the control group, the sample solution of compound A prepared above was orally administered (administered once a day) to the compound A administration group, the sample solution of losartan prepared above was orally administered (administered once a day) to the losartan administration group, and the sample solution of pirfenidone prepared above was orally administered (administered twice a day) to the pirfenidone administration group, respectively. Twenty-one days after the bleomycin exposure, the mice were anesthetized and whole lung tissues were extracted.
# After washing the lung tissue extracted from the mouse with physiological saline, water was removed with a filter paper, and the wet weight was measured.
# [2] = test system: pulmonary fibrosis model mice exposed to bleomycin in the trachea; assay: Preventive effect on pulmonary fibrosis (Example 1): amount of hydroxyproline in the lungs; conditions: 50 mg/kg/day oral once a day from the day after bleomycin exposure, day 21, FIG. 2; for amount of hydroxyproline in the lungs as compared to the control group: Dunnett test
# Procedure: as §1, §2
# (§3) Investigation was conducted in mice not exposed to bleomycin (exposed to physiological saline in the trachea) in the normal group (6 mice), and pulmonary fibrosis model mice exposed to bleomycin in the trachea divided into 4 groups (control, compound A 50 mg/kg/day, losartan 50 mg/kg/day, and pirfenidone 400 mg/kg/day; 10 mice in each group). […]
# The lung tissue extracted from the mouse was homogenized in a PBS solution, then mixed with an equal volume of 12N hydrochloric acid in a tube, and incubated at 110° C. for 20 to 24 hours. […] 10 μL of the sample was added with 100 μL of chloramine T solution (1.4% chloramine T, 10% n-propanol, 80% citrate acetate buffer) and incubated at room temperature for 20 minutes, then added with 100 μL of Ehrlich's reagent (1 M p-dimethylamino benzaldehyde, 20% perchloric acid, 50% n-propanol) and incubated at 65° C. for 15 minutes, and the absorbance at 550 nm was measured to quantify the amount of hydroxyproline.
# [3] = test system: pulmonary fibrosis model mice exposed to bleomycin in the trachea; assay: Therapeutic effect on pulmonary fibrosis (Example 2): amount of hydroxyproline in the lungs; conditions: day 21, Dunnett test, FIG. 3
# Procedure: The lung tissue extracted from the mouse was homogenized in a PBS solution, then mixed with an equal volume of 12N hydrochloric acid in a tube, and incubated at 110° C. for 20 to 24 hours. After the incubation, the solution was volatilized by opening the tube and continuing the incubation. Thereafter, the resulting mixture was suspended in a citrate acetate buffer (5% citric acid, 1.2% glacial acetic acid, 7.25% sodium acetate, 3.4% sodium hydroxide, pH 6.0), and the solution filtered with a 0.45 μm diameter centrifugal filter was used as a sample. 10 μL of the sample was added with 100 μL of chloramine T solution (1.4% chloramine T, 10% n-propanol, 80% citrate acetate buffer) and incubated at room temperature for 20 minutes, then added with 100 μL of Ehrlich's reagent (1 M p-dimethylamino benzaldehyde, 20% perchloric acid, 50% n-propanol) and incubated at 65° C. for 15 minutes, and the absorbance at 550 nm was measured to quantify the amount of hydroxyproline.
# Compound A was dissolved in a 0.5% aqueous solution of methylcellulose (methylcellulose: Shin-Etsu Chemical Co., Ltd., distilled water: Otsuka Pharmaceutical Factory, Inc.) to prepare a sample solution. Further, losartan (Tokyo Chemical Industry Co., Ltd.) was dissolved in a 0.5% aqueous solution of methylcellulose to prepare a sample solution. Furthermore, pirfenidone (Ark Pharma Inc.) was dissolved in a 0.5% aqueous solution of carboxymethyl cellulose (carboxymethyl cellulose: Maruishi Pharmaceutical Co., Ltd.) to prepare a sample solution.
# Model mice were prepared in the same manner as in Example 1.
# as §3
# The amount of hydroxyproline in the mice was measured by the same method as in Example 1.
# [4] = 50 mg/kg/day oral once a day from the day after bleomycin exposure
# [5] = 50 mg/kg/day oral once a day from the 7th day after bleomycin exposure
SMILES,"lung weight as compared with the control group ([1]; 50 mg/kg/day oral once a day from the day after bleomycin exposure, day 21, Dunnett test)","lung weight as compared to the normal group [1, 4]",amount of hydroxyproline in the lungs as compared to the control group [2],decrease of hydroxyproline in the lung relative to the losartan administration group [2],"amount of hydroxyproline in the lungs as compared to the control group [3, 5]",lung weight as compared to the normal group ([1]; 400 mg/kg/day oral twice a day from the day after bleomycin exposure),amount of hydroxyproline in the lungs as compared to the control group ([3]; 400 mg/kg/day oral twice a day from the 7th day after bleomycin exposure)
"CCCc1nc(C(C)C)n(-c2ncc(OCC)cn2)c(=O)c1Cc1ccc(-c2ccccc2-c2noc(=O)[nH]2)nc1 [compound A, 3-[2-(5-{[1-(5-ethoxypyrimidin-2-yl)-2-isopropyl-6-oxo-4-propyl-1,6-dihydropyrimidin-5-yl]methyl}pyridin-2-yl)phenyl]-1,2,4-oxadiazol-5(4H)-one]",significant decrease in lung weight,no significant increase in lung weight,significant decrease in hydroxyproline in the lung,larger decrease than the losartan administration group,significant decrease in hydroxyproline in the lung,,
CCCCc1nc(Cl)c(CO)n1Cc1ccc(-c2ccccc2-c2nn[nH]n2)cc1 [losartan],,significant increase in lung weight,significant decrease in hydroxyproline in the lung,,no significant difference,,
Cc1ccc(=O)n(-c2ccccc2)c1 [pirfenidone],,,,,,significant increase in lung weight,no significant difference
